Data: ChEMBL document CHEMBL2074068, “Flavonoid permeability across an in situ model of the blood-brain barrier” (Free Radic Biol Med, 2004)

Columns and labels:
[1] = molecular target: T1, ATP-dependent translocase ABCB1 (Homo sapiens, UniProt P08183); test: TP_TRANSPORTER: cell accumulation in MDR1-expressing MDCK cells; assay type: functional, cell-based; conditions: dog
[2] = molecular target: T1, ATP-dependent translocase ABCB1; test: TP_TRANSPORTER: cell accumulation of colchicine in the presence of Naringenin at a concentration of 100uM in MDR1-expressing MDCK cells; assay type: functional, cell-based; conditions: dog

T1 sequence (P08183 whole entry): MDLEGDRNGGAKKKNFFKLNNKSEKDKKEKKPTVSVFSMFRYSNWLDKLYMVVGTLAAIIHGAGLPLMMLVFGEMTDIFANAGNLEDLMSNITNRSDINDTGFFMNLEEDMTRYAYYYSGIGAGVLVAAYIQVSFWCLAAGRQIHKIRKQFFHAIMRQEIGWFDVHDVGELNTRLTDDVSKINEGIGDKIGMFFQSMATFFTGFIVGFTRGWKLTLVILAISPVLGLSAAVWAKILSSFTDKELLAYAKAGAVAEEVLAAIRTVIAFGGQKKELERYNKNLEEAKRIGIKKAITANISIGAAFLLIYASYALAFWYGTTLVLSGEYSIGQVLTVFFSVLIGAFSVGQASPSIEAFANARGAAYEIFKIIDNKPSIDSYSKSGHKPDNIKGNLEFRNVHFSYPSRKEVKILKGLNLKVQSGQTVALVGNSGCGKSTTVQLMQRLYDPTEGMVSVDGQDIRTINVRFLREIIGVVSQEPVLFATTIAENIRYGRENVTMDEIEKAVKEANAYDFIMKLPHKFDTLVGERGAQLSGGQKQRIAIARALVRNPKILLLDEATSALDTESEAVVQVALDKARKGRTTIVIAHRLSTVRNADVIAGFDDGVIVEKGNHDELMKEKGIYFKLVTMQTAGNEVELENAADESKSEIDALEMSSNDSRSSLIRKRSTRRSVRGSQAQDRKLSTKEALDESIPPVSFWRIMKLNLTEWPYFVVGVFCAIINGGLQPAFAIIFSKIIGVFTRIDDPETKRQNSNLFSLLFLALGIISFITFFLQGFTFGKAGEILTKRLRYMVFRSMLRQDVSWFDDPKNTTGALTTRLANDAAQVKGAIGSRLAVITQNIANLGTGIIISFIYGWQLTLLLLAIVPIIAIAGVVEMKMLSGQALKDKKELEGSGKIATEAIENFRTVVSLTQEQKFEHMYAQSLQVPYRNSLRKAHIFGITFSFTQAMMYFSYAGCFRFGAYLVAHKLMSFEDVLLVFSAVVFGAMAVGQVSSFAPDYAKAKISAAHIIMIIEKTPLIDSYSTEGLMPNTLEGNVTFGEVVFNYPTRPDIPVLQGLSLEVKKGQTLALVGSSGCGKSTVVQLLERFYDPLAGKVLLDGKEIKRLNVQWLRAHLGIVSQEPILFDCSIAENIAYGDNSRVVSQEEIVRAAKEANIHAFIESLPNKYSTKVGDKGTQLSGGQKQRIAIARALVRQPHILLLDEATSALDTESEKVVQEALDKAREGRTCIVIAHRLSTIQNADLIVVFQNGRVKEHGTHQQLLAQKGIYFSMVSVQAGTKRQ

For `O=C1C[C@@H](c2ccc(O)cc2)Oc2cc(O)cc(O)c21` [NARINGENIN], the Activity [1] was “substrate [+]” and the Activity [2] was “inhibitor [+]”.
